Test results taken from patent US11377476B2, “Ras inhibitory peptides and uses thereof” (President and Fellows of Harvard College, priority 2014, dated 2022).
Converted amounts (≈) assume the structure as drawn. One block for each molecule: values may come before it. No end group written: not given here.

How the values were obtained:
[1] = Circular dichroism spectra and thermal melting at 222 nm; type: physicochemical; details: for Tm: CD at 222 nm; for effect of mutation on peptide secondary structure by CD: pH 12, compared to 225-3
[2] = test system: endogenous Ras in Capan-1 cell lysate; assay: Peptide pulldown of Ras in Capan-1 cell lysate; type: binding, human; details: for pulldown of endogenous Ras by biotinylated peptide: 5 μM peptide, streptavidin beads, western blot
GppNHp-bound Rapla = GppNHp-bound Rapla (Homo sapiens, UniProt P62834); details: Rapla versus Ras
[3] = not told
RalA = target: T1, RalA (Homo sapiens, UniProt P11233); assay: Yeast surface display binding to RalA; details: FIG. 38A-B
T1 sequence (P11233 1-206): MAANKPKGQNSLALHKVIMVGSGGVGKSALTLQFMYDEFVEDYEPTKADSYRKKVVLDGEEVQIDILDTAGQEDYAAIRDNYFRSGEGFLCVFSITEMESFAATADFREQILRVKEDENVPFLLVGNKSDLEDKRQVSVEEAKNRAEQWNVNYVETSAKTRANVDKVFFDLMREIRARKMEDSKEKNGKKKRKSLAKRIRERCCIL
From the text: (§1) Experimental for yeast display assays were similar to those used for FIG. 9. MY01 peptide of SEQ ID NO: 43 corresponds to the indicated high-binding population in FIG. 38C. Purification of the RalA protein was similar to the methods used for KRas constructs as discussed previously.

KRas = KRas (Homo sapiens, UniProt P01116, G12V); assay: Yeast surface display binding to KRas (FACS)
Ras = Ras (Homo sapiens, UniProt P01116, G12V); assay: Ras binding of disulfide-protected peptide on addition of glutathione; details: Cys protected with 2,2′-Dipyridyldisulfide; 5 mM reduced glutathione
From the text: This cysteine is uncaged in the presence of […] glutathione levels to form the disulfide-bonded species, which is a better Ras binder. […] The experimentals are the similar to those described for FIG. 19.

KRas (G12V).GppNHp = KRas (G12V).GppNHp (Homo sapiens, UniProt P01116, G12V); assay: Fluorescence polarization binding of FITC-labeled 225-3 and its alanine mutants to KRas; details: alanine mutants of 225-3
[4] = target: T2, endogenous Ras / Raf RBD interaction (Homo sapiens, UniProt P01116, G12V); assay: GST-Raf RBD pulldown of Ras in Capan-1 cell lysate, competition by peptide; type: biochemical; details: lysate pre-incubated with 10 μM peptide
T2 construct: endogenous in cells; host or cells: Capan-1 lysate (Ras); the GST-Raf RBD was made in E. coli BL21 Rosetta I pLysS from pGEX-5X

[5] = target: KRas (G12V) loaded with mant-GppNHp (Homo sapiens, UniProt P01116, G12V); assay: Mant nucleotide dissociation assay; type: biochemical; details: 1 μM Raf or peptide, 500 nM Ras, excess GppNHp
Myc/Max heterodimer = Myc/Max heterodimer (Homo sapiens, UniProt P01106+P61244); assay: Yeast surface display binding to Myc/Max; details: FIG. 38C
From the text: as §1
Purification of the Myc/Max proteins was done as follows. A bicistronic pET vector containing His6-yBBr-TEV-Myc (residues 353-434) and untagged Max (residues 22-102) was transformed into chemically competent BL21 cells. The cells were grown to OD600=0.7, induced with 0.25 mM IPTG for 5 hours at 30° C., then harvested and resuspended in lysis buffer (20 mM HEPES pH 7.5, 500 mM KCl, 5% glycerol) prior to snap-freezing in liquid nitrogen. For purification, the pellet was thawed, raised to 40 ml in the same buffer, and mixed with a Roche Complete EDTA-free protease inhibitor tablet. The cells were lysed with a tip sonicator (VirSonic, 6 cycles of 10 s on, 15 s off at 6.5 power level), then pelleted at 30,000×g for 30 minutes and filtered through a 0.45 uM Tuffryn membrane (Pall Corporation). The clarified lysate was added to 2 ml of HisPur Ni-NTA resin (Thermo Pierce) that had been equilibrated with the same buffer, and drained by gravity. The column was washed with 20 ml of buffer, then protein was eluted with buffer containing 150 mM imidazole and some protease inhibitor. […]

[6] = test system: H358 lung adenocarcinoma cells; assay: Live-cell confocal microscopy with fluorescein-labeled peptides; type: cell-based, human; details: 5 uM, compared to SEQ ID NO: 10
Protocol: Human tumor cell lines (e.g., H358 or HPAF-II) were seeded into LabTek II culture chambers in DMEM media supplemented with 10% fetal calf serum and grown overnight at 37° C. under standard cell culture conditions. The following day, media was replaced with media containing 5 uM of fluorescein-labeled peptide and incubated for 4 hours at 37° C. The cells were washed, stained with NucBlue Hoechst 33342 and Dextran 10k Alexa647, then imaged on a confocal microscope. The fluorescent peptides were visualized with a 488 nm laser and is shown in green in FIGS. 34A-B.

[7] = Solubility of peptides in buffer

- Tm ([1]; pH 4.5): 57 °C
- Tm ([1]; pH 12): 46.2 °C
- binding weaker than to Ras (GppNHp-bound Rapla): more than 100 fold
- cell permeability [3]: somewhat cell permeable
Molecule: CC[C@H](C)[C@H](NC(=O)[C@H](CO)NC(=O)[C@H](C)NC(=O)[C@H](CC(=O)O)NC(=O)[C@H](CC(=O)O)NC(=O)CNC(=O)[C@@H]1CCCN1C(=O)[C@H](Cc1ccc(O)cc1)NC(=O)[C@H](CCCNC(=N)N)NC(=O)[C@@H]1CCCN1C(=O)[C@H](CCCNC(=N)N)NC(=O)[C@H](CCCNC(=N)N)NC(=O)[C@@H]1CCCN1C(=O)[C@H](CCCNC(=N)N)NC(=O)[C@H](CCCNC(=N)N)NC(=O)[C@@H]1CCCN1C(=O)CNC(=O)CNC(=O)[C@H](CS)NC(=O)CN)C(=O)N[C@@H](CCC(=O)O)C(=O)N[C@@H](CC(=O)O)C(=O)N[C@@H](CC(C)C)C(=O)N[C@@H](Cc1c[nH]cn1)C(=O)N[C@@H](CCC(=O)O)C(=O)N[C@@H](Cc1ccc(O)cc1)C(=O)N[C@@H](Cc1c[nH]c2ccccc12)C(=O)N[C@@H](C)C(=O)N[C@@H](CCCNC(=N)N)C(=O)N[C@@H](CC(C)C)C(=O)N[C@@H](Cc1c[nH]c2ccccc12)C(=O)N[C@@H](CC(N)=O)C(=O)N[C@@H](Cc1ccc(O)cc1)C(=O)N[C@@H](CC(C)C)C(=O)N[C@@H](Cc1ccc(O)cc1)C(=O)N[C@@H](C)C(=O)N[C@H](C(=O)N[C@@H](C)C(=O)O)C(C)C [Peptide 225-3]
- pulldown of endogenous Ras by biotinylated peptide [2]: pulled down Ras
- pulldown of endogenous Ras by biotinylated peptide after Raf RBD pre-incubation ([2]; lysate pre-incubated with Raf RBD (3 μM)): not when the lysate was pre-incubated with the Raf RBD

Molecule: GPRRPRCPGDDASISDLLLYWLRLDRYLWAVA [SEQ ID NO: 44]
- binding to RalA (RalA): binds

Molecule: I14A: single alanine point mutant I14A of the 225-3 peptide (GCGGPRRPRRPRYPGDDASAEDLHEYWARLWNYLYAVA) [Peptide I14A]
- effect of mutation on peptide secondary structure by CD [1]: significant destabilizing effect

Molecule: GCGGPRRPRYPGDDASIEDLHEYWARLWNYLYRVA [225-1 A30R]
- selectivity KRas(GTP) vs KRas(GDP) (KRas; 500 nM each of Ras.GTP and Ras.GDP, two-colour FACS): more selective for KRas (GTP) than 225-1

Molecule: GCGGPRRPRYPGDDACEEDLHEYWARLWNYLYAVA [225-1 S13C/I14E]
- binding of yeast-displayed peptide to KRas (KRas; 5 nM KRas, mutant pre-incubated with free 225-1): binds Ras with increased affinity

Molecule: PRRPRCPGHAASIAALHAYWARLWNYLYRVR [Peptide 291-Q3]
- change in Ras binding upon addition of reduced glutathione (Ras): increase in Ras binding

Molecule: GPRRPRCPGDDASIRDLVMYWYRLYFYLEAVA [SEQ ID NO: 45]
- binding to KRas (KRas; yeast surface display, FIG. 38): binds both RalA and KRas
- binding to RalA (RalA): binds both RalA and KRas

Molecule: GCGGPRRPRRPRYPGDDASIEDLHEYAARLWNYLYAVA [Peptide W21A]
- effect of mutation on peptide secondary structure by CD [1]: significant destabilizing effect

Molecule: GCGGPRRPRRPRYPGDDASIEDLHEYWARLWAYLYAVA [Peptide N26A]
- reduction in measured binding affinity relative to 225-3 (KRas (G12V).GppNHp): at least 100 fold
- effect of mutation on peptide secondary structure by CD [1]: unchanged compared to 225-3
- pulldown of endogenous Ras by biotinylated peptide [2]: not pulled down
- effect on pulldown of Ras by GST-tagged Raf RBD [4]: did not disrupt this pulldown
- effect on rate of mantGppNHp dissociation from KRas [5]: did not decrease the rate of dissociation

Molecule: GCGGPRRPRRPRYPGDDASIEDLHEYWARLANYLYAVA [Peptide W25A]
- effect of mutation on peptide secondary structure by CD [1]: significant destabilizing effect

Molecule: GPRRPRCPGDDASIRDLLKYWWRLRLYLLAVA [SEQ ID NO: 43]
- binding to Myc/Max (Myc/Max heterodimer): binds

Molecule: GCGGPRRPRYPGDAASIAALHAYWARLWNYLYRVA [SEQ ID NO: 28]
- solubility / aggregates in microscopy [6]: increased solubility

Molecule: CC[C@H](C)[C@H](NC(=O)[C@H](CO)NC(=O)[C@H](C)NC(=O)[C@H](CC(=O)O)NC(=O)[C@H](CC(=O)O)NC(=O)CNC(=O)[C@@H]1CCCN1C(=O)[C@H](Cc1ccc(O)cc1)NC(=O)[C@H](CCCNC(=N)N)NC(=O)[C@@H]1CCCN1C(=O)[C@H](CCCNC(=N)N)NC(=O)[C@H](CCCNC(=N)N)NC(=O)[C@@H]1CCCN1C(=O)CNC(=O)CNC(=O)[C@H](CS)NC(=O)CN)C(=O)N[C@@H](CCC(=O)O)C(=O)N[C@@H](CC(=O)O)C(=O)N[C@@H](CC(C)C)C(=O)N[C@@H](Cc1c[nH]cn1)C(=O)N[C@@H](CCC(=O)O)C(=O)N[C@@H](Cc1ccc(O)cc1)C(=O)N[C@@H](Cc1c[nH]c2ccccc12)C(=O)N[C@@H](C)C(=O)N[C@@H](CCCNC(=N)N)C(=O)N[C@@H](CC(C)C)C(=O)N[C@@H](Cc1c[nH]c2ccccc12)C(=O)N[C@@H](CC(N)=O)C(=O)N[C@@H](Cc1ccc(O)cc1)C(=O)N[C@@H](CC(C)C)C(=O)N[C@@H](Cc1ccc(O)cc1)C(=O)N[C@@H](C)C(=O)N[C@H](C(=O)N[C@@H](C)C(=O)O)C(C)C [Peptide 225-1]
- solubility [7]: 100 to 200 µM (≈ 407 to 814 µg/mL)
